According to article PMC3774597 (Journal of biomolecular screening, 2012):

T1: isoleucyl-tRNA synthetase (IleRS) (Trypanosoma brucei, UniProt Q38A55)
T1 sequence (Q38A55 67-1143): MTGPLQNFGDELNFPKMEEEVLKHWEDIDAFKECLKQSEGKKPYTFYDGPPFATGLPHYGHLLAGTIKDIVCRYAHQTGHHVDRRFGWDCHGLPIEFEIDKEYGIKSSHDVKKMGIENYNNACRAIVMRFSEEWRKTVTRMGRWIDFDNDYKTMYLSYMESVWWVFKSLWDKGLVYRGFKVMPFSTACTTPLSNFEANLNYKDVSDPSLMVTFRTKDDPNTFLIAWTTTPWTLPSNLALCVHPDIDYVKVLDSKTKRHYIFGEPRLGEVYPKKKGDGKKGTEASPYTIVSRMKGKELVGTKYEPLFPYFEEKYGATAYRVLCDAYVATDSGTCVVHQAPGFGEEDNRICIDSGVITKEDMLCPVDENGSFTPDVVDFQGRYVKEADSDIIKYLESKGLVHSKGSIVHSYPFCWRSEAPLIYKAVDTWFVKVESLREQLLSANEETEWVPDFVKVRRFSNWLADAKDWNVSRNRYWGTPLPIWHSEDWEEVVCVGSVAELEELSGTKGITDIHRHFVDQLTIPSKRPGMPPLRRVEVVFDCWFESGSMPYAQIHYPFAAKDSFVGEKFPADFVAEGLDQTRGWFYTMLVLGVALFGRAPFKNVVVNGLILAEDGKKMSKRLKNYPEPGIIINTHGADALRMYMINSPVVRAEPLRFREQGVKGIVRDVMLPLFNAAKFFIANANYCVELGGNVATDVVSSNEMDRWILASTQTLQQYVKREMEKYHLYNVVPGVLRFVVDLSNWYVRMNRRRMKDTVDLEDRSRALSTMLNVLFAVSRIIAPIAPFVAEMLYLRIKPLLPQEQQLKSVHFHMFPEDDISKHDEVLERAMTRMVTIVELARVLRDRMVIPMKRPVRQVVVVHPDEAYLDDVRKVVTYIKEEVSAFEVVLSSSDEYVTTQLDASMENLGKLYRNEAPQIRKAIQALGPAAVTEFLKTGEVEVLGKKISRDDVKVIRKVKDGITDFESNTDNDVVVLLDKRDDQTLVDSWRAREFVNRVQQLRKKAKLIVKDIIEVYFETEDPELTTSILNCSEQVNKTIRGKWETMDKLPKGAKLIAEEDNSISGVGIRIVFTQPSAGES

B1: isoleucyl-tRNA synthetase (IleRS) (Trypanosoma brucei brucei TREU927) (protein)
chain: MTGPLQNFGDELNFPKMEEEVLKHWEDIDAFKECLKQSEGKKPYTFYDGPPFATGLPHYGHLLAGTIKDIVCRYAHQTGHHVDRRFGWDCHGLPIEFEIDKEYGIKSSHDVKKMGIENYNNACRAIVMRFSEEWRKTVTRMGRWIDFDNDYKTMYLSYMESVWWVFKSLWDKGLVYRGFKVMPFSTACTTPLSNFEANLNYKDVSDPSLMVTFRTKDDPNTFLIAWTTTPWTLPSNLALCVHPDIDYVKVLDSKTKRHYIFGEPRLGEVYPKKKGDGKKGTEASPYTIVSRMKGKELVGTKYEPLFPYFEEKYGATAYRVLCDAYVATDSGTCVVHQAPGFGEEDNRICIDSGVITKEDMLCPVDENGSFTPDVVDFQGRYVKEADSDIIKYLESKGLVHSKGSIVHSYPFCWRSEAPLIYKAVDTWFVKVESLREQLLSANEETEWVPDFVKVRRFSNWLADAKDWNVSRNRYWGTPLPIWHSEDWEEVVCVGSVAELEELSGTKGITDIHRHFVDQLTIPSKRPGMPPLRRVEVVFDCWFESGSMPYAQIHYPFAAKDSFVGEKFPADFVAEGLDQTRGWFYTMLVLGVALFGRAPFKNVVVNGLILAEDGKKMSKRLKNYPEPGIIINTHGADALRMYMINSPVVRAEPLRFREQGVKGIVRDVMLPLFNAAKFFIANANYCVELGGNVATDVVSSNEMDRWILASTQTLQQYVKREMEKYHLYNVVPGVLRFVVDLSNWYVRMNRRRMKDTVDLEDRSRALSTMLNVLFAVSRIIAPIAPFVAEMLYLRIKPLLPQEQQLKSVHFHMFPEDDISKHDEVLERAMTRMVTIVELARVLRDRMVIPMKRPVRQVVVVHPDEAYLDDVRKVVTYIKEEVSAFEVVLSSSDEYVTTQLDASMENLGKLYRNEAPQIRKAIQALGPAAVTEFLKTGEVEVLGKKISRDDVKVIRKVKDGITDFESNTDNDVVVLLDKRDDQTLVDSWRAREFVNRVQQLRKKAKLIVKDIIEVYFETEDPELTTSILNCSEQVNKTIRGKWETMDKLPKGAKLIAEEDNSISGVGIRIVFTQPSAGES

Assays:
[1] = target: T1, isoleucyl-tRNA synthetase (IleRS); test: malachite green aminoacylation assay coupled to pyrophosphatase, dose response; assay type: biochemical
[2] = substrate: CC[C@H](C)[C@H](N)C(=O)O; test: Michaelis-Menten kinetics; assay type: biochemical, Trypanosoma brucei

Row | Molecule | IC50 [1] [nM] | Km [2] [µM]
1 | CC(C)(C)[Si](C)(C)OCC1OC(n2cnc3c(N)ncnc32)C(O)C1O (centres unmarked) [NSC616354] | 600 | 
2 | B1 |  | 39.7
